# In US6221870A, “Ergoline derivatives and their use as somatostatin receptor antagonists” (Novartis AG, priority 1997, dated 2001):
# Experiments:
# [1] = target: T1, native rat sst1 receptors (Rattus norvegicus, UniProt P28646); assay: affinity for native rat sst1 receptors (radioligand binding); conditions: read-out: pIC50, affinity for native rat sst1 receptors (converted)
# T1 construct: native rat sst1 receptors
# Source text: (§1) In particular the agents of the invention bind to somatostatin receptors. More particularly they are selective antagonists at Somatostatin sst1 receptors, previously called SSTR-1 receptors (see Hoyer et al., TIPS, 1995, 16; 86-88), as determined in radioligand binding and second messenger studies [see for example K Kaupmann et al., FEBS LETTERS 1993, 331: 53-59].
# (§2) For all above indications the preferred compound is the compound of example 1 below.
# [2] = target: T2, native human sst1 receptors (Homo sapiens, UniProt P30872); assay: affinity for native human sst1 receptors (radioligand binding); conditions: read-out: pIC50, affinity for native human sst1 receptors (converted)
# T2 construct: native and recombinant human sst1 receptors
# Source text: as §1, §2
# [3] = target: T3, recombinant human sst1 receptors (Homo sapiens, UniProt P30872); assay: affinity for recombinant human sst1 receptors (radioligand binding); conditions: read-out: pIC50, affinity for recombinant human sst1 receptors (converted)
# T3 construct: expressed in transfected cells
# Source text: as §1, §2
# mice = assay: Matched Pairs Situation test in mice; assay type: in vivo, mouse; conditions: for lowering of aggressive behavior (Matched Pairs Situation test), standard drugs: 3-30 mg/kg s.c.; for potency compared with the compound of example 1, Matched Pairs Situation test: standard drugs at 3-30 mg/kg s.c.
# intruder mouse = intruder mouse test; assay type: in vivo; conditions: for potency compared with the compound of example 1, intruder mouse test: standard drugs at 3-30 mg/kg s.c.
# [4] = tested on: neurotransmitter receptors; assay: activity for a wide range of neurotransmitter receptors; assay type: binding
# Source text: as §2
# [5] = known drawback; cited from earlier work
# T1 sequence (P28646 whole entry): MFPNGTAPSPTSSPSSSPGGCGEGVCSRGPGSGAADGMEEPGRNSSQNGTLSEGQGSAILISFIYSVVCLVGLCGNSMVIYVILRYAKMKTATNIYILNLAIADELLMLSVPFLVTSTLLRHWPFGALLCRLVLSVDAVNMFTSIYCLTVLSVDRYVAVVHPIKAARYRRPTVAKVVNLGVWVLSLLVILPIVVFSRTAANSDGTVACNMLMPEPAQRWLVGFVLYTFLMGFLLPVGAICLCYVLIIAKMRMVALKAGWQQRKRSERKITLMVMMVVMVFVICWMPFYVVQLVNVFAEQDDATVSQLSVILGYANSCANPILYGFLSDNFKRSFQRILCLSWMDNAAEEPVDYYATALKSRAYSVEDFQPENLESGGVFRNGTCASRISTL
# T3 sequence (P30872 whole entry): as the sequence (P28646 whole entry) above, with P8S, T11S, S16P, G20S, V25G, C26G, S32A, S45A, A385T, S389T counted along it
# T2 sequence (P30872 whole entry): as the sequence (P28646 whole entry) above, with P8S, T11S, S16P, G20S, V25G, C26G, S32A, S45A, A385T, S389T counted along it
Compound,IC50 [1] [nM],IC50 [2] [nM],IC50 [3] [nM],aggressive behavior in the Matched Pairs Situation test (mice; 3-30 mg/kg p.o.),social withdrawal in the intruder mouse test (intruder mouse; 3-30 mg/kg p.o.),activity for a wide range of neurotransmitter receptors [4],"lowering of aggressive behavior (Matched Pairs Situation test), standard drugs (mice)","potency compared with the compound of example 1, Matched Pairs Situation test (mice)",therapeutic window [5],"potency compared with the compound of example 1, intruder mouse test (intruder mouse)"
"CN1C[C@H](C(=O)N2CCN(c3cccc(=O)n3C)CC2)C[C@@H]2c3cccc4[nH]c(Br)c(c34)C[C@H]21 [Example 1, [5R, 8R, 10R]-2-Bromo-9,10-dihydro-lysergic-acid-4-(1-methyl-1H-pyrid-6-on-2-yl)-piperazine-amide]",0.2,1,1.58,clearly lowers aggressive behavior,reverses social withdrawal,without significant activity,–,–,–,–
NC(=O)N1c2ccccc2C=Cc2ccccc21 [carbamazepine],–,–,–,–,–,–,These effects are also observed,less potent,narrow therapeutic window,less potent
lithium,–,–,–,–,–,–,These effects are also observed,less potent,narrow therapeutic window,less potent
